Patent US11000033B2, “Ketone or oxime compound, and herbicide” (NISSAN CHEMICAL CORPORATION, priority 2014, dated 2021)

What was measured:
Assay type in all cases: in vivo
[1] = tested on: Echinochloa crus-galli var. crus-galli; test: Test Example 4: herbicidal effect by soil treatment (symbol H); conditions: application herbicide amount 320 g/ha
Summary of the method: (§1)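 Seeds were sown in sterilized diluvial soil, covered with about 1.5 cm of soil, and the soil surface was sprayed with a water-diluted emulsion of the compound at a predetermined rate. Plants grew in a greenhouse at 25° C. to 30° C.; effects were scored visually 3 weeks after application.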

[2] = tested on: Amaranthus retroflexus; test: Test Example 5: herbicidal effect by foliage application, plastic box (symbol N); conditions: 320 g/ha, 3 weeks after application
Summary of the method: (§2)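 Herbicide, formulated as an emulsion and diluted in water, is sprayed onto the aerial parts of 14-day seedlings. These were grown at 25° C. to 30° C. in sterilized diluvial soil; effects are graded after 3 weeks.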

[3] = tested on: Echinochloa crus-galli var. crus-galli; test: Test Example 3: herbicidal effect by foliage application, Wagner pot (symbol H); conditions: application herbicide amount 320 g/ha
Summary of the method: (§3)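 Herbicidal activity was rated three weeks after a foliar spray of diluted emulsion concentrate, applied at a predetermined dose to plants grown for 14 days from seed in waterlogged alluvial soil within a 25–30 °C greenhouse.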

[4] = tested on: beet; test: Test Example 4: effect on crop by soil treatment (symbol f); conditions: application herbicide amount 320 g/ha
Summary of the method: (§4)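 Crop seed is sown in spots together with several weed species in a box of sterilized diluvial soil. It is covered by about 1.5 cm of soil and kept in a greenhouse held between 25° C. and 30° C.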

[5] = tested on: Chenopodium album; test: Test Example 4: herbicidal effect by soil treatment (symbol O); conditions: application herbicide amount 320 g/ha
Summary of the method: as §1

[6] = tested on: Scirpus juncoides; test: Test Example 2: herbicidal activity, application during weed generation in submerged conditions (symbol B); conditions: Table 23; application herbicide amount 320 g/ha; grade 0-5 by criteria of Test Example 1
Summary of the method: (§5)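 Visual herbicidal ratings, taken three weeks after dosing, reflect post-emergence water-surface application to seedlings at one to two leaves. Conditions: co-sown weeds in alluvial soil flooded to 4 cm, greenhouse held at 25° C. to 30° C.; compound given as water-diluted emulsion at a fixed herbicide amount.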

[7] = tested on: Stellaria media; test: Test Example 5: herbicidal effect by foliage application, plastic box (symbol P); conditions: 320 g/ha, 3 weeks after application
Summary of the method: as §2

[8] = tested on: Abutilon theophrasti; test: Test Example 5: herbicidal effect by foliage application, plastic box (symbol M); conditions: 320 g/ha, 3 weeks after application
Summary of the method: as §2

[9] = tested on: wheat; test: Test Example 4: effect on crop by soil treatment (symbol e); conditions: application herbicide amount 320 g/ha
Summary of the method: as §4

[10] = tested on: Setaria viridis; test: Test Example 5: herbicidal effect by foliage application, plastic box (symbol G); conditions: 320 g/ha, 3 weeks after application
Summary of the method: as §2

[11] = tested on: Lolium multiflorum Lam.; test: Test Example 4: herbicidal effect by soil treatment (symbol K); conditions: application herbicide amount 320 g/ha
Summary of the method: as §1

[12] = tested on: Alopecurus myosuroides; test: Test Example 4: herbicidal effect by soil treatment (symbol J); conditions: application herbicide amount 320 g/ha
Summary of the method: as §1

[13] = tested on: Veronica persica; test: Test Example 5: herbicidal effect by foliage application, plastic box (symbol R); conditions: 320 g/ha, 3 weeks after application
Summary of the method: as §2

[14] = tested on: rice plant; test: Test Example 5: effect on crop by foliage application, plastic box (symbol b); conditions: 320 g/ha, 3 weeks after application
Summary of the method: (§6)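 Soil: sterilized diluvial. Container: plastic box, 21 × 13 cm, 7 cm deep. Sowing: spot-like, ~1.5 cm cover. Growth: greenhouse, 25° C. to 30° C.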

[15] = tested on: Amaranthus retroflexus; test: Test Example 4: herbicidal effect by soil treatment (symbol N); conditions: application herbicide amount 320 g/ha
Summary of the method: as §1

[16] = tested on: Cyperus difformis; test: Test Example 3: herbicidal effect by foliage application, Wagner pot (symbol E); conditions: application herbicide amount 320 g/ha
Summary of the method: as §3

[17] = tested on: soybean; test: Test Example 4: effect on crop by soil treatment (symbol d); conditions: application herbicide amount 320 g/ha
Summary of the method: as §4

[18] = tested on: beet; test: Test Example 5: effect on crop by foliage application, plastic box (symbol f); conditions: 320 g/ha, 3 weeks after application
Summary of the method: as §6

[19] = tested on: Echinochloa oryzacola Vasing.; test: Test Example 2: herbicidal activity, application during weed generation in submerged conditions (symbol A); conditions: Table 23; application herbicide amount 320 g/ha; grade 0-5 by criteria of Test Example 1
Summary of the method: as §5

[20] = tested on: Chenopodium album; test: Test Example 5: herbicidal effect by foliage application, plastic box (symbol O); conditions: 320 g/ha, 3 weeks after application
Summary of the method: as §2

Row | Structure (SMILES) | N: Amaranthus retroflexus, herbicidal effect grade [2] | Herbicidal effect grade, B: Scirpus juncoides [6] | P: Stellaria media, herbicidal effect grade [7] | M: Abutilon theophrasti, herbicidal effect grade [8] | G: Setaria viridis, herbicidal effect grade [10] | R: Veronica persica, herbicidal effect grade [13] | b: directly sowed rice plant, effect on crop grade [14] | f: beet, effect on crop grade [18] | Herbicidal effect grade, A: Echinochloa oryzacola Vasing. [19] | O: Chenopodium album, herbicidal effect grade [20] | H (Echinochloa crus-galli var. crus-galli) herbicidal effect grade [1] | herbicidal effect on H (Echinochloa crus-galli var. crus-galli), grade 0-5 [3] | f (beet) effect on crop grade [4] | O (Chenopodium album) herbicidal effect grade [5] | e (wheat) effect on crop grade [9] | K (Lolium multiflorum Lam.) herbicidal effect grade [11] | J (Alopecurus myosuroides) herbicidal effect grade [12] | N (Amaranthus retroflexus) herbicidal effect grade [15] | herbicidal effect on E, grade 0-5 [16] | d (soybean) effect on crop grade [17] | also measured
1 | CCC(=O)CC1CC(O)=C(c2c(C)cc(Br)cc2OC)C1=O (racemic) [14-002] | 0 (Herbicidal ratio of 5% or lower (almost no effect)) | 0 (Herbicidal ratio of 5% or lower (almost no effect)) | 0 (Herbicidal ratio of 5% or lower (almost no effect)) | 4 (Herbicidal ratio of 70% or higher and lower than 90%) | 5 (Herbicidal ratio of 90% or more (almost completely withered)) | 0 (Herbicidal ratio of 5% or lower (almost no effect)) | 4 (Herbicidal ratio of 70% or higher and lower than 90%) | 0 (Herbicidal ratio of 5% or lower (almost no effect)) | 5 (Herbicidal ratio of 90% or more (almost completely withered)) | 0 (Herbicidal ratio of 5% or lower (almost no effect)) | – | – | – | – | – | – | – | – | – | – | H: Echinochloa crus-galli var. crus-galli, herbicidal effect grade [1]: 5 (Herbicidal ratio of 90% or more (almost completely withered)); H (Echinochloa crus-galli var. crus-galli) herbicidal effect grade ([3]; Table 24): 5 (Herbicidal ratio of 90% or more (almost completely withered)); f: beet, effect on crop grade [4]: 0 (Herbicidal ratio of 5% or lower (almost no effect)); O: Chenopodium album, herbicidal effect grade [5]: 0 (Herbicidal ratio of 5% or lower (almost no effect)); e: wheat, effect on crop grade [9]: 3 (Herbicidal ratio of 40% or higher and lower than 70%); K: Lolium multiflorum Lam., herbicidal effect grade [11]: 5 (Herbicidal ratio of 90% or more (almost completely withered)); J: Alopecurus myosuroides, herbicidal effect grade [12]: 4 (Herbicidal ratio of 70% or higher and lower than 90%); N: Amaranthus retroflexus, herbicidal effect grade [15]: 0 (Herbicidal ratio of 5% or lower (almost no effect)); E herbicidal effect grade ([16]; Table 24): 5 (Herbicidal ratio of 90% or more (almost completely withered)); d: soybean, effect on crop grade [17]: 0 (Herbicidal ratio of 5% or lower (almost no effect))
2 | CON=C(C)CC1CC(OC(C)=O)=C(c2c(C)cc(C)cc2C)C1=O (stereo not drawn) [1-005] | 4 (Herbicidal ratio of 70% or higher and lower than 90%) | 4 (Herbicidal ratio of 70% or higher and lower than 90%) | 4 (Herbicidal ratio of 70% or higher and lower than 90%) | 4 (Herbicidal ratio of 70% or higher and lower than 90%) | 5 (Herbicidal ratio of 90% or more (almost completely withered)) | 3 (Herbicidal ratio of 40% or higher and lower than 70%) | 5 (Herbicidal ratio of 90% or more (almost completely withered)) | 3 (Herbicidal ratio of 40% or higher and lower than 70%) | 5 (Herbicidal ratio of 90% or more (almost completely withered)) | 3 (Herbicidal ratio of 40% or higher and lower than 70%) | 5 (Herbicidal ratio of 90% or more (almost completely withered)) | 5 (Herbicidal ratio of 90% or more (almost completely withered)) | 4 (Herbicidal ratio of 70% or higher and lower than 90%) | 0 (Herbicidal ratio of 5% or lower (almost no effect)) | 4 (Herbicidal ratio of 70% or higher and lower than 90%) | 5 (Herbicidal ratio of 90% or more (almost completely withered)) | 5 (Herbicidal ratio of 90% or more (almost completely withered)) | 5 (Herbicidal ratio of 90% or more (almost completely withered)) | 5 (Herbicidal ratio of 90% or more (almost completely withered)) | 2 (Herbicidal ratio of 20% or higher and lower than 40%) | –
3 | CON=C(C)CC1CC(OS(C)(=O)=O)=C(c2c(C)cc(C)cc2C)C1=O (stereo not drawn) [1-006] | 3 (Herbicidal ratio of 40% or higher and lower than 70%) | 3 (Herbicidal ratio of 40% or higher and lower than 70%) | 0 (Herbicidal ratio of 5% or lower (almost no effect)) | 4 (Herbicidal ratio of 70% or higher and lower than 90%) | 5 (Herbicidal ratio of 90% or more (almost completely withered)) | 2 (Herbicidal ratio of 20% or higher and lower than 40%) | 5 (Herbicidal ratio of 90% or more (almost completely withered)) | 0 (Herbicidal ratio of 5% or lower (almost no effect)) | 5 (Herbicidal ratio of 90% or more (almost completely withered)) | 0 (Herbicidal ratio of 5% or lower (almost no effect)) | 5 (Herbicidal ratio of 90% or more (almost completely withered)) | 5 (Herbicidal ratio of 90% or more (almost completely withered)) | 0 (Herbicidal ratio of 5% or lower (almost no effect)) | 0 (Herbicidal ratio of 5% or lower (almost no effect)) | 0 (Herbicidal ratio of 5% or lower (almost no effect)) | 5 (Herbicidal ratio of 90% or more (almost completely withered)) | 4 (Herbicidal ratio of 70% or higher and lower than 90%) | 4 (Herbicidal ratio of 70% or higher and lower than 90%) | 5 (Herbicidal ratio of 90% or more (almost completely withered)) | 0 (Herbicidal ratio of 5% or lower (almost no effect)) | –
